In patent US20120207861A1, “BIOCIDAL COMPOSITION AND METHOD FOR TREATING RECIRCULATING WATER SYSTEMS” (priority 2006, published 2012):

Assays:
[1] = test system: biofilm of fungal isolates (Paecilomyces lilacinus, Trichoderma spp.) and bacterial isolates (Alcaligenes species, Sphingomonas species); test: Remediation: 96-well plate mixed biofilm treated with biocides, resazurin readout; type: cell-based; details: for Efficacy level (Effective Concentration with 6 ppm of PHMB): with 6 ppm PHMB, biofilm treated 24 hours at 28° C., resazurin; for Result (effect of adjuvant on DBNPA efficacy against biofilm): adjuvant 50 ppm with DBNPA in presence of PHMB
Protocol: Fungal isolates of common fungi found in swimming pools such as Paecilomyces lilacinus and Trichoderma spp. and bacterial isolates also common to swimming pools such as, i.e. Alcaligenes species and Sphingomonas species were used to construct a biofilm, which was treated with biocides, using the following method: […] An aliquot of the spore suspension was added to each well of a 96-well plate, except column 12. The plates were incubated for 18 hours at 28° C. Also, a mixture of bacterial suspension was prepared at a concentration of 2.34×10^5/ml in 20% […] broth. An aliquot of bacterial suspension was added to each well of the 96-well plate, where fungal spores were placed. The plates were incubated for 24 hours at 28° C. […] An aliquot of the chemical solution was added to each well of column 1 and 2. The solution was mixed in each well of column 2 and an aliquot of solution was transferred from each well of column 2 to each well of column 3. The dilution was repeated to column 11 and the solution from each well of column 11 after dilution was discarded. The culture broth was removed from each well of the incubated plate. An aliquot of 0.8% sodium chloride solution was added to each well, except column 12. The sodium chloride solution was then removed from each well. The prepared chemical solutions were transferred to the corresponding wells of the biofilm plate. The plate was incubated for 24 hours at 28° C. The chemical solution was removed from the plate and an aliquot of resazurin solution was added to each well including column 12. The plate was kept on the lab bench for 24-48 hours. The plate was read at 540 nm and 620 nm. The difference in absorbance between the two wavelengths indicated the performance of the biocides.

[2] = test system: eight species of bacteria and four species of fungi typically found in swimming pool water; test: Prevention secondary screen: laboratory scale model of a swimming pool, water clarity and hydrogen peroxide loss; type: cell-based; details: for Number of Days of Clarity below 1.0 NTU / Number of Days of Clarity below 1.0 NTU with no Peroxide in System: Table 4
[3] = test system: bacteria Alcaligenes, Chryseobacterium and Sphingomonas; test: Prevention secondary screen: bacterial plate counts; type: cell-based; details: Table 4
[4] = test system: fungi Paecilomyces and Trichoderma; test: Prevention secondary screen: fungal plate counts; type: cell-based; details: Table 4
[5] = test system: viable bacteria in pool water and sand with established biofilm; test: Remedial secondary screen: failed model pool, reduction of viable microorganisms in water and sand; type: cell-based; details: FIGS. 1 and 2
Protocol: The secondary screen methodology is based upon a laboratory scale model of a swimming pool. A volume (800 ml) of synthetic swimming pool water (Calcium chloride dihydrate and Sodium hydrogen carbonate solution) is pumped through a body of swimming pool filter sand, by means of a peristaltic pump. The water temperature of each system is maintained in the range of 80-90° F. The systems are allowed to fail resulting in turbid water and heavy bacterial and fungal growth. This is to simulate a swimming pool that has been improperly maintained and has a problem. The purpose of this test is to evaluate the ability of a single biocide or combination of biocides with adjuvants for controlling the organisms present in both the water and the filter sand. Turbidity is not a key measure because the suspended solids are too fine for filtration so they would need to be removed with a separate chemical treatment such as flocculation. To the water, chemicals may be added as required. […] Hydrogen peroxide is added at concentrations of 0-27.5 ppm at the start of the experimentation. The secondary model system is challenged on a daily basis with eight species of bacteria and four species of fungi typically found in swimming pool water. These microorganisms include species of the fungi Paecilomyces and Trichoderma, and species of the bacteria Alcaligenes, Chryseobacterium and Sphingomonas. Each inoculation represents a total addition of 0.8×10^6 microorganisms per model apparatus. A volume (5 ml) of synthetic bather load is added to the system on a daily basis, as a nutrient source for the microorganisms present in the system. The bather load consists of carbon, nitrogen and macro/micro nutrient sources such as urea, albumin, creatinine, lactic acid, uric acid, glucuronic acid, sodium chloride, sodium sulfate, ammonium chloride, sodium bicarbonate, potassium phosphate potassium sulfate. […] The biocidal treatments are added and reduction of viable microorganisms is measured. The biocidal treatments may be added a second time.

[6] = test system: eight species of bacteria and four species of fungi typically found in swimming pool water; test: Prevention in test pools: overall mold and bacterial control
Protocol: The test pools were run in the preventative mode to evaluate the effect of the sanitizers on the build up of bacteria and fungi in the system. The pool pumps were operated for a minimum of 8 hours per day. Each pool was challenged twice per week with eight species of bacteria and four species of fungi typically found in swimming pool water. These microorganisms include species of the fungi Paecilomyces and Trichoderma, and species of the bacteria Alcaligenes, Chryseobacterium and Sphingomonas. Each inoculation represents a total addition of 0.8×106 microorganisms per test pool. Synthetic bather load is added to the system on a weekly basis, as a nutrient source for the microorganisms present in the system. The bather load consists of carbon, nitrogen and macro/micro nutrient sources such as urea, albumin, creatinine, lactic acid, uric acid, glucuronic acid, sodium chloride, sodium sulfate, ammonium chloride, sodium bicarbonate, potassium phosphate potassium sulfate. The total number of viable bacteria and fungi present in each test pool was determined weekly, by conducting agar plate counts. Water samples are removed from each test pool, and using this sample a dilution series (in 10-1 steps, down to a 10-5 of the original sample) is prepared. […]

[7] = test system: Mold (fungi Paecilomyces and Trichoderma); test: Prevention in test pools: water mold counts
Protocol: (§1) The test pools were run in the preventative mode to evaluate the effect of the sanitizers on the build up of bacteria and fungi in the system. The pool pumps were operated for a minimum of 8 hours per day. Each pool was challenged twice per week with eight species of bacteria and four species of fungi typically found in swimming pool water. These microorganisms include species of the fungi Paecilomyces and Trichoderma, and species of the bacteria Alcaligenes, Chryseobacterium and Sphingomonas. Each inoculation represents a total addition of 0.8×106 microorganisms per test pool. Synthetic bather load is added to the system on a weekly basis, as a nutrient source for the microorganisms present in the system. The bather load consists of carbon, nitrogen and macro/micro nutrient sources such as urea, albumin, creatinine, lactic acid, uric acid, glucuronic acid, sodium chloride, sodium sulfate, ammonium chloride, sodium bicarbonate, potassium phosphate potassium sulfate. The total number of viable bacteria and fungi present in each test pool was determined weekly, by conducting agar plate counts. Water samples are removed from each test pool, and using this sample a dilution series (in 10-1 steps, down to a 10-5 of the original sample) is prepared. Subsequently, an aliquot of each dilution is spread onto dry Cystine Lactose Electrolyte Deficient agar plates (for enumeration of bacteria) and dry Sabaroud-Dextrose agar plates (for enumeration of fungi). […] There were no chemical doses administered on Saturday or Sunday.

[8] = test system: Bacteria (Alcaligenes, Chryseobacterium and Sphingomonas); test: Prevention in test pools: water bacteria counts
Protocol: as §1

[9] = DBNPA 1 ppm Daily Additions, in the absence of PHMB
[10] = Pool 2, 1.0 ppm/day DBNPA, Low Baquacil (10-20 ppm)
[11] = Pool 2, 1.0 ppm/day DBNPA, Recommended Baquacil (30-50 ppm)
[12] = Pool 6, 0.5 ppm/day DBNPA, Low Baquacil (10-20 ppm)
[13] = Pool 6, Tablet 0.3 ppm/day DBNPA, Recommended Baquacil (30-50 ppm), with hydrogen peroxide doses
[14] = Pool 7, 2.0 ppm/day DBNPA, Low Baquacil (10-20 ppm)
[15] = Pool 7, 2.0 ppm/day DBNPA, Recommended Baquacil (30-50 ppm)

Compound: N#CC(Br)(Br)C(N)=O [DBNPA, Dibromonitrilopropionamide]
- Effective concentration of DBNPA in presence of PHMB and Adjuvant ([1]; Adjuvant DSPO 50 ppm): 1.6-3.13 ppm
- Effective concentration of DBNPA in presence of PHMB and Adjuvant ([1]; Adjuvant DTEA 50 ppm): 3.13-6.25 ppm
- Effective concentration of DBNPA in presence of PHMB and Adjuvant ([1]; Adjuvant Envirosweet 50 ppm): 6.25-12.5 ppm
- Effective concentration of DBNPA in presence of PHMB and Adjuvant ([1]; Adjuvant Geogard 111A 50 ppm): 6.25-12.5 ppm
- Effective concentration of DBNPA in presence of PHMB and Adjuvant ([1]; Adjuvant None): 3.13-6.25 ppm
- Effective concentration of DBNPA in presence of PHMB and Adjuvant ([1]; Adjuvant SADA 50 ppm): 1.5-3.13 ppm
- Effective concentration of DBNPA in presence of PHMB and Adjuvant ([1]; Adjuvant Span 60 50 ppm): 3.13-6.25 ppm
- Effective concentration of DBNPA in presence of PHMB and Adjuvant ([1]; Adjuvant Sulfamic acid 50 ppm): 0.8-1.6 ppm
- Effective concentration of DBNPA in presence of PHMB and Adjuvant ([1]; Adjuvant Surfonic L24-22 50 ppm): 3.13-6.25 ppm
- Effective concentration of DBNPA in presence of PHMB and Adjuvant ([1]; Adjuvant Triton BG10 50 ppm): 3.13-6.25 ppm
- Effective concentration of DBNPA in presence of PHMB and Adjuvant ([1]; Adjuvant Worm 50 ppm): 1.6-3.13 ppm
- Number of Days of Clarity below 1.0 NTU ([2]; DBNPA 0.25 ppm Daily Additions): 47 days
- Number of Days of Clarity below 1.0 NTU with no Peroxide in System ([2]; DBNPA 0.25 ppm Daily Additions): 0 days
- Number of Days of Clarity below 1.0 NTU ([2]; DBNPA 0.5 ppm Daily Additions): 54 days
- Number of Days of Clarity below 1.0 NTU with no Peroxide in System ([2]; DBNPA 0.5 ppm Daily Additions): 19 days
- Number of Days of Clarity below 1.0 NTU [2, 9]: <12 days
- time to failure of the system (turbid water) versus PHMB alone or PHMB and DBNPA combinations ([2]; experiment 2, DBNPA added daily at 1 ppm in the absence of PHMB): failure of the system and development of turbid water significantly sooner
- performance at preventing turbid water and controlling bacteria and fungi, compared to PHMB alone ([2]; experiment one, DBNPA weekly addition with PHMB): did not perform as well as the PHMB only treatment
- Bacterial Counts at Clarity of 1.0 NTU or above ([3]; DBNPA 0.25 ppm Daily Additions): 3.0 × 10^7 CFU/ml
- Bacterial Counts at Clarity of 1.0 NTU or above ([3]; DBNPA 0.5 ppm Daily Additions): 1.3 × 10^8 CFU/ml
- Bacterial Counts at Clarity of 1.0 NTU or above [3, 9]: 9.9 × 10^7 CFU/ml
- Fungal Counts at Clarity of 1.0 NTU or above ([4]; DBNPA 0.25 ppm Daily Additions): 3.0 × 10^2 CFU/ml
- Fungal Counts at Clarity of 1.0 NTU or above ([4]; DBNPA 0.5 ppm Daily Additions): 2.0 × 10^2 CFU/ml
- Fungal Counts at Clarity of 1.0 NTU or above [4, 9]: 1.2 × 10^3 CFU/ml
- reduction of viable bacterial and fungal populations (remedial performance) ([5]; versus oxidizers and surfactants): significantly better than the oxidizers and surfactants
- log reduction of viable bacteria in the water ([5]; remedial treatment of failed model system): improved performance over the non-oxidizing surfactants
- log reduction of viable bacteria in the sand ([5]; remedial treatment of failed model system, established biofilm): superior
- average mold and bacterial counts when PHMB was increased to recommended ranges ([6]; all pools treated with DBNPA): significantly reduced
- improved performance over controls (average mold and bacterial counts) ([6]; all pools treated with DBNPA versus control pools): 2-4 logs
- Mold % 0 counts [7, 10]: 59.7%
- Mold % Counts >999 cfu/ml [7, 10]: 3.0%
- Mold Avg Counts [7, 10]: 4267 cfu/ml
- Mold % 0 counts [7, 11]: 69.0%
- Mold % Counts >999 cfu/ml [7, 11]: 0.0%
- Mold Avg Counts [7, 11]: 9.0 cfu/ml
- mold control compared to the other DBNPA pools ([7]; Pool 2 at low PHMB (1.0 ppm/day DBNPA)): had difficulty controlling mold
- Mold % 0 counts [7, 12]: 76.1%
- Mold % Counts >999 cfu/ml [7, 12]: 0.0%
- Mold Avg Counts [7, 12]: 19.0 cfu/ml
- Mold % 0 counts [7, 13]: 66.7%
- Mold % Counts >999 cfu/ml [7, 13]: 0.0%
- Mold Avg Counts [7, 13]: 8.0 cfu/ml
- Mold % 0 counts [7, 14]: 74.6%
- Mold % Counts >999 cfu/ml [7, 14]: 1.5%
- Mold Avg Counts [7, 14]: 620 cfu/ml
- Mold % 0 counts [7, 15]: 83.3%
- Mold % Counts >999 cfu/ml [7, 15]: 0.0%
- Mold Avg Counts [7, 15]: 4.0 cfu/ml
- Bacteria % 0 counts [8, 10]: 83.6%
- Bacteria % Counts >999 cfu/ml [8, 10]: 4.5%
- Bacteria Avg Counts [8, 10]: 561 cfu/ml
- Bacteria % 0 counts [8, 11]: 83.3%
- Bacteria % Counts >999 cfu/ml [8, 11]: 2.4%
- Bacteria Avg Counts [8, 11]: 74.0 cfu/ml
- Bacteria % 0 counts [8, 12]: 88%
- Bacteria % Counts >999 cfu/ml [8, 12]: 1.5%
- Bacteria Avg Counts [8, 12]: 150 cfu/ml
- Bacteria % 0 counts [8, 13]: 92.8%
- Bacteria % Counts >999 cfu/ml [8, 13]: 0.0%
- Bacteria Avg Counts [8, 13]: 5.0 cfu/ml
- Bacteria % 0 counts [8, 14]: 89.6%
- Bacteria % Counts >999 cfu/ml [8, 14]: 0.0%
- Bacteria Avg Counts [8, 14]: 22.0 cfu/ml
- Bacteria % 0 counts [8, 15]: 100%
- Bacteria % Counts >999 cfu/ml [8, 15]: 0.0%
- Bacteria Avg Counts [8, 15]: 0.0 cfu/ml

Compound: CCCCCCCCCCCCN [Armeen 12D, Dodecyl amines]
- Efficacy level (Effective Concentration with 6 ppm of PHMB) [1]: >100 ppm

Compound: Sorbitan monooleate [Alkamuls BR]
- Efficacy level (Effective Concentration with 6 ppm of PHMB) [1]: >100 ppm

Compound: O=C1c2ccccc2C(=O)c2ccccc21 [Envirosweet, 9,10 anthraquinone]
- Result (effect of adjuvant on DBNPA efficacy against biofilm) [1]: Negative impact

Compound: CCCCCCCCCCCCCC(=O)O [Myristian, Mystic acid]
- Efficacy level (Effective Concentration with 6 ppm of PHMB) [1]: >100 ppm

Compound: N-Alkyl (C12-16)-N,N-dimethyl-N-benzylammonium chloride [Uniquat QAC-50]
- Efficacy level (Effective Concentration with 6 ppm of PHMB) [1]: >100 ppm

Compound: CC(=O)C1C(=O)C=C(C)OC1=O (stereo not drawn) [Geogard 111A, Dehydroxyacetic acid (dehydroacetic acid)]
- Result (effect of adjuvant on DBNPA efficacy against biofilm) [1]: Negative impact

Compound: POE (2) stearyl ether [Brij ® 72]
- Efficacy level (Effective Concentration with 6 ppm of PHMB) [1]: >100 ppm

Compound: Fatty alcohol polyglycol ether [Genapol C 050]
- Efficacy level (Effective Concentration with 6 ppm of PHMB) [1]: >100 ppm

Compound: NS(=O)(=O)O [Sulfamic acid]
- Result (effect of adjuvant on DBNPA efficacy against biofilm) [1]: most significant effect on lowering the concentration of DBNPA
